Measured values reported in PMC12345137 (mBio, 2025).
Like-named read-outs stand apart in the source and are kept apart here. Positions of bridges follow the written chain, without caps; N, C: chain ends. Residues, ends and D or L forms follow the SMILES beside them.

How the values were obtained:
S. epidermidis agr-I = S. epidermidis agr-I (Staphylococcus epidermidis, UniProt Q5HMY3); test: cell-based; assay type: cell-based; conditions: for QS interaction in words (inhibition / activation), S. epidermidis agr-I: fluorescent reporter strain, peptides tested at 1000, 50, 2.5, 0.125 nM or in dose-response
Experimental: (§1) Peptides were evaluated for the ability to interfere with agr-mediated quorum sensing in S. aureus (AH1677, AH430, AH1747, and AH1872 for agr-I–IV, respectively) ([40]) using reporter strains expressing yellow fluorescent protein (YFP) upon agr activation. Interference with agr-mediated quorum sensing in S. epidermidis (AH3408, AH3623, and AH3409 for agr-I–III, respectively) ([45]), and S. lugdunensis (AH4031 for agr-I) ([37]) was evaluated using reporter strains expressing superfolder green fluorescent protein (sGFP) upon agr activation. Overnight cultures of the reporter strains were grown in TSB medium containing chloramphenicol (CAM, 10 μg/mL for S. aureus) or erythromycin (ERM, 10 μg/mL of S. epidermidis and S. lugdunensis) and diluted 1:100 in fresh TSB medium containing the same antibiotic. Assays were performed in sterile black 96-well plates with a clear bottom. […] DMSO stock solutions of peptides (1 mM) were diluted in TSB media and added (15 μL) in technical triplicate to the 96-well plate, followed by diluted bacterial overnight cultures (135 μL). […] Wells containing 150 μL TSB medium were used to measure background fluorescence. The 96-well plates were incubated in a humidified incubator at 37°C shaking at 1,000 rpm for 22–24 h and fluorescence (for GFP: excitation 479 nm, emission 520 nm; for YFP: excitation 500 nm, emission 541 nm; automatic gain), and OD600 values were subsequently measured using a plate reader. Background fluorescence was subtracted from all wells and further normalized to the corresponding OD600 value of the respective wells. The average fluorescence of control wells was used as a relative measure for 100% activation of the agr-circuit, and bar graphs were generated using GraphPad Prism 10.4 software. All assays were performed in at least a biological duplicate.
(§2) Overnight cultures of the reporter strains were grown in TSB medium containing chloramphenicol (CAM, 10 μg/mL for S. aureus) or erythromycin (ERM, 10 μg/mL of S. epidermidis and S. lugdunensis) and diluted 1:100 in fresh TSB medium containing the same antibiotic. Assays were performed in sterile black 96-well plates with clear bottoms. Peptide solutions (15 μL) in 1:5 serial dilutions from DMSO stock solutions (1 mM) in TSB medium were added to the 96-well plate in technical duplicate followed by diluted bacterial overnight cultures (135 μL). […] Wells containing 150 μL TSB medium were used to measure background fluorescence. The 96-well plates were incubated in a humidified incubator at 37°C shaking at 1,000 rpm for 22–24 h and fluorescence (for GFP: excitation 479 nm, emission 520 nm; for YFP: excitation 500 nm, emission 541 nm; automatic gain), and OD600 values were subsequently measured using a plate reader. Background fluorescence was subtracted from all wells and further normalized to the corresponding OD600 value of the respective wells. The average fluorescence of control wells was used as a relative measure for 100% activation of the agr-circuit. Relative agr activity was plotted to obtain IC50 values by non-linear regression with variable slope using GraphPad Prism 10.4 software. All assays were performed in biological triplicate.

SA AgrC-IV = SA AgrC-IV (Staphylococcus aureus, UniProt Q309Z2)
S. aureus (SA) agr-II = conditions: fluorescence, cited from earlier work
S. aureus (SA) agr-III = conditions: fluorescence, cited from earlier work
S. aureus agr-I = S. aureus agr-I (Staphylococcus aureus, UniProt O07911); test: Fluorescence reporter assay for agr interference, screening and IC50 (AH1677, P3-YFP); assay type: cell-based
Experimental: as §1, §2

S. aureus (SA) agr-IV = conditions: fluorescence, cited from earlier work

Chain of S. epidermidis agr-I (Q5HMY3 entry or part of it): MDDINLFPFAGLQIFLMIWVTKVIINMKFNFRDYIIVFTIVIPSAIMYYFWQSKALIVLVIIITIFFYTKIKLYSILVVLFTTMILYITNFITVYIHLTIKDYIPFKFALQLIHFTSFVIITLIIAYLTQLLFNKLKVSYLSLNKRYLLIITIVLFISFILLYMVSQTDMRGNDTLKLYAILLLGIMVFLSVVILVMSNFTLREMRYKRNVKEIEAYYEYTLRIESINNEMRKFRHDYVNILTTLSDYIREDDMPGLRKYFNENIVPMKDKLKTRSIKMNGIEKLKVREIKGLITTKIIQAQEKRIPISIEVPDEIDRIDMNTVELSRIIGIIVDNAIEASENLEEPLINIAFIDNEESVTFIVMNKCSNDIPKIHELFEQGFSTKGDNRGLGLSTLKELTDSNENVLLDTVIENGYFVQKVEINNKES
Chain of SA AgrC-IV (Q309Z2 entry or part of it): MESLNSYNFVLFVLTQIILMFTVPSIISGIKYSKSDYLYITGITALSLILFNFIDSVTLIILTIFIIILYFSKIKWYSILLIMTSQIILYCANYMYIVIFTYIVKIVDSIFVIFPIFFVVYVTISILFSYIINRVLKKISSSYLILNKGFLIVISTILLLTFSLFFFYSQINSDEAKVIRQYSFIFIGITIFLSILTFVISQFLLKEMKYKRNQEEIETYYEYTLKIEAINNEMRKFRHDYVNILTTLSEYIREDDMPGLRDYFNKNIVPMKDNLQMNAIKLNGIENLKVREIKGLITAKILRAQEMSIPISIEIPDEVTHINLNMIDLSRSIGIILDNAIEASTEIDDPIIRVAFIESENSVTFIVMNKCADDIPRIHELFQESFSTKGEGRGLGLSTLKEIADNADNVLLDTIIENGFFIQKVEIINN
Chain of S. aureus agr-I (O07911 entry or part of it): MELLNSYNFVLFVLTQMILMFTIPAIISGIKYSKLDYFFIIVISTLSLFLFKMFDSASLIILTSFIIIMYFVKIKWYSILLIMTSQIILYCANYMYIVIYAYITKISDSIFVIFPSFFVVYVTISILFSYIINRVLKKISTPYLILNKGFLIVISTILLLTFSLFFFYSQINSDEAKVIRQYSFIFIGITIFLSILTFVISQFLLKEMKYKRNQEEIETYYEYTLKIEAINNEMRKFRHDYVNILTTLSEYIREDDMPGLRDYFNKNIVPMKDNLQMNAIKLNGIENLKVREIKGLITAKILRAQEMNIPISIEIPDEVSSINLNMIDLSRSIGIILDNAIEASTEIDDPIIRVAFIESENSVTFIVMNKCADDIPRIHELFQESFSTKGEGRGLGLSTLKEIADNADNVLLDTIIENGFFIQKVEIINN

Row | Molecule | IC50 (S. epidermidis agr-I) | EC50 (SA AgrC-IV; ± SEM; determined previously; ref (1); read-out: EC50, SA AgrC-IV, b-lactamase assay; cited from earlier work) | IC50 (S. aureus (SA) agr-II; ref (5)) | IC50 (S. aureus (SA) agr-III; ref (5)) | IC50 (S. aureus agr-I) | IC50 (SA AgrC-IV; read-out: IC50, SA AgrC-IV, b-lactamase assay; 100 nM cognate AIP; ± SEM; -b = no inhibition recorded at the highest AIP concentration tested; determined previously; ref (1); cited from earlier work) | IC50 (S. aureus (SA) agr-II; ref (17)) | IC50 (S. aureus (SA) agr-III; ref (17)) | IC50 (S. aureus (SA) agr-IV; ref (17)) | QS interaction in words (inhibition / activation), S. aureus agr-I (S. aureus agr-I; fluorescent reporter strain, peptides tested at 1000, 50, 2.5, 0.125 nM or in dose-response) | QS interaction in words (inhibition / activation), S. epidermidis agr-I (S. epidermidis agr-I) | IC50 (SA AgrC-IV; 100 nM cognate AIP; ± SEM; -b = no inhibition recorded at the highest AIP concentration tested; determined previously; ref (1); read-out: IC50, SA AgrC-IV, b-lactamase assay; cited from earlier work) | IC50 (S. aureus (SA) agr-IV; ref (5))
1 | CC[C@H](C)[C@@H]1NC(=O)[C@H](Cc2ccccc2)NC(=O)[C@H](CC(=O)O)NC(=O)[C@@H](NC(=O)[C@@H](NC(=O)[C@H](CO)NC(=O)[C@@H](N)Cc2ccc(O)cc2)[C@@H](C)O)CSC(=O)[C@H](CCSC)NC1=O [compound 1, S. aureus AIP-I] (H-YSTCDFIM; thioester 4-C) | > 1000 nM | 790 ± 66 nM | 8 nM | 0.53 nM | – | – | – | – | – | – | – | – | –
2 | CC(C)C[C@@H]1NC(=O)[C@@H](NC(=O)[C@@H]2CCCN2C(=O)[C@H](CC(N)=O)NC(=O)[C@H](Cc2ccc(O)cc2)NC(=O)[C@@H](N)CCCCN)CSC(=O)[C@H](CC(C)C)NC(=O)[C@H](Cc2ccccc2)NC(=O)CNC1=O [compound 32, S. simulans AIP-I] (H-KYNPCLGFL; thioester 5-C; N-terminus assumed) | 0.74 ± 0.01 nM | – | – | – | 0.34 ± 0.02 nM | 280 ± 66 nM | 1.1 nM | 3.5 nM | 23 nM | – | – | – | –
3 | NCCCC[C@H](N)C(=O)N[C@@H](Cc1ccc(O)cc1)C(=O)N[C@@H](Cc1ccc(O)cc1)C(=O)N1CCC[C@H]1C(=O)N[C@H]1CSC(=O)[C@H](Cc2ccccc2)NC(=O)[C@H](Cc2ccc(O)cc2)NC(=O)CNC(=O)[C@H](Cc2c[nH]c3ccccc23)NC1=O [compound 33, S. simulans AIP-II] (H-KYYPCWGYF; thioester 5-C) | 0.31 ± 0.06 nM | – | – | – | 0.45 nM | – | – | 11.5 nM | 40 nM | inhibited | inhibited | – | –
4 | NCCCC[C@H](N)C(=O)N[C@@H](Cc1ccc(O)cc1)C(=O)N[C@@H](CC(N)=O)C(=O)N1CCC[C@H]1C(=O)N[C@H]1CSC(=O)[C@H](Cc2ccccc2)NC(=O)[C@H](Cc2ccc(O)cc2)NC(=O)CNC(=O)[C@H](Cc2c[nH]c3ccccc23)NC1=O [compound 34, S. simulans AIP-III] (H-KYNPCWGYF; thioester 5-C) | 0.14 ± 0.03 nM | – | – | – | 0.18 ± 0.03 nM | – | 6 nM | 3.2 nM | 48 nM | – | – | – | –
5 | S. aureus AIP-III D4A [compound 57, reference compound] | – | – | 0.43 nM | 0.051 nM | – | – | – | – | – | – | weak interference | 10 ± 0.2 nM | 0.035 nM
